Here are results for 1 molecule from ChEMBL document CHEMBL5131409, “Synthesis and characterization of chiral 6-azaspiro[2.5]octanes as potent and selective antagonists of the M4 muscarinic acetylcholine receptor” (Bioorg Med Chem Lett, 2022).

Numbering of substitutions follows the chain as printed. Where only a bound is given, the exact number is not on record here.

A short description of data set [1]: AUC (0.25 to last) in mouse plasma at 3 mg/kg, ip. The class given is ADME, organism-based. The arrangement: dose 3 mg/kg, route ip.
Data set [2] can be described thus: Ratio of AUC (0.25 to last) in rat brain to plasma at 3 mg/kg, ip. The data set is classed as ADME, organism-based. To be noted: read-out: Ratio AUC.
Data set [3] can be described thus: Intrinsic clearance in rat liver microsomes. The class given is ADME, Microsome. To be noted: read-out: CLH.
Data set [4] is described as follows: Plasma clearance in rat at 3 mg/kg, iv. The data set is classed as ADME, organism-based.
Another data set deals with T1, Cytochrome P450 1A2 (Homo sapiens, UniProt P05177).
T1 sequence (P05177 whole entry): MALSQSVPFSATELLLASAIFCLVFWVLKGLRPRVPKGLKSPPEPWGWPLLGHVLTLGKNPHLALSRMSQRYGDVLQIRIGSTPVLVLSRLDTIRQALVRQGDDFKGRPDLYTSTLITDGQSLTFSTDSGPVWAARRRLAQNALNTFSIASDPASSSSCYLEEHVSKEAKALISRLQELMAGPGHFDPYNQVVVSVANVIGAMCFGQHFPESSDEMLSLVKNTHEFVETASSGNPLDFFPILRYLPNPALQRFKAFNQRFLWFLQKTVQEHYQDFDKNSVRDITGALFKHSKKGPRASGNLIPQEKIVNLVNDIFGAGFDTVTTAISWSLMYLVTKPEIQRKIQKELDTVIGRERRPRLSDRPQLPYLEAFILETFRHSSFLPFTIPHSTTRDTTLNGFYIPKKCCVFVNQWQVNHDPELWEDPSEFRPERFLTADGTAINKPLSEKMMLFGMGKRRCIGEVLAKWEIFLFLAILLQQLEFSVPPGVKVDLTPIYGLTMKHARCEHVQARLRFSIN
The experiment in a line: Inhibition of CYP1A2 in human liver microsomes using cocktail of isoform-specific probe substrate. The class given is ADME, Microsome. For orientation: Microsomes from liver hold many membrane-bound enzymes, among them those of drug oxidation.

For data set [5], the target named is T2, Muscarinic acetylcholine receptor M1 (Rattus norvegicus, UniProt P08482).
T2 sequence (P08482 whole entry): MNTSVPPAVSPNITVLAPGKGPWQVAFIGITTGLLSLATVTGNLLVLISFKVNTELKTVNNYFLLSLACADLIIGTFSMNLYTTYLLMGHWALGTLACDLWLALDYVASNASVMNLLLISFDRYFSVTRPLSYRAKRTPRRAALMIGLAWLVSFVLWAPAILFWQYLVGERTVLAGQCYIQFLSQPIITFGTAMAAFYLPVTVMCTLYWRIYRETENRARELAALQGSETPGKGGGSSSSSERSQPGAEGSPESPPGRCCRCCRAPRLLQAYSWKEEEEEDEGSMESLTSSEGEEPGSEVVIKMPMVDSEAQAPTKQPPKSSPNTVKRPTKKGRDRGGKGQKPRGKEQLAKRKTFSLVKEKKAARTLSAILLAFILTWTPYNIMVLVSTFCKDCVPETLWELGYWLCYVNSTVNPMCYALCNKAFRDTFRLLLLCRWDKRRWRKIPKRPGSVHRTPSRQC
Nature of the data set: Inhibition of rat muscarinic acetylcholine M1 receptor expressed in CHO cells co-expressing Gqi5 preincubated with compound followed by acetylcholine addition at EC80 concentration by calcium mobilization assay. The data set is classed as functional, cell-based.

A short description of data set [6]: Tmax in mouse plasma at 3 mg/kg, ip. The data set is classed as ADME, organism-based.
Data set [7] is described as follows: Cmax in rat plasma at 3 mg/kg, ip. The data set is classed as ADME, organism-based. Also noted: dose 3 mg/kg, route ip.
The target in data set [8] is T3, Muscarinic acetylcholine receptor M2 (Homo sapiens, UniProt P08172).
T3 sequence (P08172 whole entry): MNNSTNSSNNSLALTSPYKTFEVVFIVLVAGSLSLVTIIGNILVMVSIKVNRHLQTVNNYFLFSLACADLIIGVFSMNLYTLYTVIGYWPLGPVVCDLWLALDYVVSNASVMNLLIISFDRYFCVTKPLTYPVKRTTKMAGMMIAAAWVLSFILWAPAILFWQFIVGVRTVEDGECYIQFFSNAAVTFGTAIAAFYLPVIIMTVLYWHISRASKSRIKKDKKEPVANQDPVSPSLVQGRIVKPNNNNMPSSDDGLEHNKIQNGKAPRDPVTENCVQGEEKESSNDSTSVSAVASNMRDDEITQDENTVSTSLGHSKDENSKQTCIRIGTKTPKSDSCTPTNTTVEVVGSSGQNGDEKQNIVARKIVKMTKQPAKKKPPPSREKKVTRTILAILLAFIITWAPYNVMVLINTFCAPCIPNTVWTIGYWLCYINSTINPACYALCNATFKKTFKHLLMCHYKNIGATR
The experiment in a line: Inhibition of human muscarinic acetylcholine M2 receptor expressed in CHO cells co-expressing Gqi5 preincubated with compound followed by acetylcholine addition at EC80 concentration by calcium mobilization assay. The data set is classed as functional, cell-based. A general note: Calcium flux is commonly read through the fluorescence of an indicator in the cells.

Data set [9] addresses Muscarinic acetylcholine receptor M3 (Rattus norvegicus, UniProt P08483). Nature of the data set: Inhibition of rat muscarinic acetylcholine M3 receptor expressed in CHO cells co-expressing Gqi5 preincubated with compound followed by acetylcholine addition at EC80 concentration by calcium mobilization assay. The data set is classed as functional, cell-based.
The nature of data set [10]: Tmax in rat plasma at 3 mg/kg, ip. The class given is ADME, organism-based.
Data set [11] can be described thus: AUC (0.25 to last) in rat plasma at 3 mg/kg, ip. The data set is classed as ADME, organism-based. Also noted: dose 3 mg/kg, route ip.
The nature of data set [12]: Tmax in rat brain at 3 mg/kg, ip. The data set is classed as ADME, organism-based.
Data set [13] has as its target T4, Muscarinic acetylcholine receptor M1 (Homo sapiens, UniProt P11229).
T4 sequence (P11229 whole entry): T2 sequence (P08482 whole entry) with V5A, S254T, S309P, K320R, G337A, V413I
Nature of the data set: Inhibition of human muscarinic acetylcholine M1 receptor expressed in CHO cells co-expressing Gqi5 preincubated with compound followed by acetylcholine addition at EC80 concentration by calcium mobilization assay. The data set is classed as functional, cell-based.

A short description of data set [14]: MRT in rat at 3 mg/kg, iv. To be noted: in vivo. The data set is classed as ADME, organism-based.
A further data set has as its target Cytochrome P450 2D6 (Homo sapiens, UniProt P10635). Nature of the data set: Inhibition of CYP2D6 in human liver microsomes using cocktail of isoform-specific probe substrate. The class given is ADME, Microsome.

Muscarinic acetylcholine receptor M3, sequence (P08483 whole entry): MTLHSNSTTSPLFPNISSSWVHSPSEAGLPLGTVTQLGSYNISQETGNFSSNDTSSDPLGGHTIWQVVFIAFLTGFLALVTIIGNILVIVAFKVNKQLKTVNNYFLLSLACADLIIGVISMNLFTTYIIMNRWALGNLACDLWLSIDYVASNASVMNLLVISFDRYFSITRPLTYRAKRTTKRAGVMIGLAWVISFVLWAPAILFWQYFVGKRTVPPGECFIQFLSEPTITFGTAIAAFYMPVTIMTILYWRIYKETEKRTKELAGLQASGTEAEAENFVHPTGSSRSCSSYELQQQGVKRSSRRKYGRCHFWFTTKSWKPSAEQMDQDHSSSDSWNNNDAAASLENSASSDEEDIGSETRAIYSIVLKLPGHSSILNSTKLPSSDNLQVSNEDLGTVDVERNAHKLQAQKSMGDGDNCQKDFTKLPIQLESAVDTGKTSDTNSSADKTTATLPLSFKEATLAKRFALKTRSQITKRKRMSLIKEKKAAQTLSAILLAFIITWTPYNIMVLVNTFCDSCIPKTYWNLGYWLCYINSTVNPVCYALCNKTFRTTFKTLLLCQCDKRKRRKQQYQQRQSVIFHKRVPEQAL
Cytochrome P450 2D6, sequence (P10635 whole entry, canonical isoform): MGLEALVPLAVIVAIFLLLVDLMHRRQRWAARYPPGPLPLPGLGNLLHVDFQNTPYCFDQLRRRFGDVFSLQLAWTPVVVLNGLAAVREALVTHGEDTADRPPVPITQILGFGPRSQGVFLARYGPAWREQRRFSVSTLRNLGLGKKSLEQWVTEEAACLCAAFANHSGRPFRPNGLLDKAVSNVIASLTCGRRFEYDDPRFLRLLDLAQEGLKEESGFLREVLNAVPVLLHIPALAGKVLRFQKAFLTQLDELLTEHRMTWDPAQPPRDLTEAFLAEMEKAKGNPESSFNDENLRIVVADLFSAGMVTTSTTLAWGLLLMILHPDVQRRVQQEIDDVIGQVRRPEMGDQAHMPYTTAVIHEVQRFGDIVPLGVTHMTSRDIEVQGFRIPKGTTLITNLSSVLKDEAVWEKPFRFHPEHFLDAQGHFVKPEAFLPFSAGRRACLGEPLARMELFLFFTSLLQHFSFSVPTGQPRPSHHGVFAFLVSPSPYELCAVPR

With `CC(=O)Nc1ccc(-c2ccc(NC[C@@H]3CC34CCN(CC3CCOCC3)CC4)nn2)cc1`, the results for the AUC in data set [1] and in data set [11] were 10500 ng·h/mL and 9550 ng·h/mL, respectively. Further, in data set [2], the Kp was determined as 0.23. Also, in data set [3], the CLint scaled was 6.2 mL/min/kg. Moreover, the clearance (as a rule, a measure of how efficiently the substance is removed, as volume per time) in data set [4] was 257 mL/min/kg. Besides, the IC50 (as a rule, the point on the concentration scale where inhibition reaches its midpoint) was over 30 µM at Cytochrome P450 1A2; over 10 µM in data set [5]; over 10 µM in [8]; over 10 µM in [9]; over 10 µM in data set [13]; over 30 µM against Cytochrome P450 2D6. Besides, the values for the Tmax in data set [6], in data set [10] and in data set [12] were 0.5 h, 0.25 h and 2 h, respectively. For the same molecule, the Cmax (usually the peak of the concentration-time curve) in [7] was found to be 6700 ng/mL. In data set [14], the mean residence time (MRT) (commonly the average time that molecules of a dose stay in the body) was 9.33 h.
